According to patent US20240228555A9, “ANTIMICROBIAL PEPTIDOMIMETICS” (Basilea Pharmaceutica International AG, Allschwil, priority 2020, published 2024):
Where a SMILES comes first, the peptide text is derived from it. Bridges are numbered along the chain shown (N, C = ends). [ ]: non-standard residue; d: D form. Hyp = O=C(O)[C@@H]1C[C@@H](O)CN1; Pen = CC(C)(S)[C@H](N)C(=O)O; dDab = NCC[C@@H](N)C(=O)O; Dab = NCC[C@H](N)C(=O)O

Key:
[1] = tested on: Escherichia coli ATCC 25922; settings: ATCC 25922
Method: (§1) Lyophilized peptides were weighed on a Microbalance (Mettler MT5) and dissolved in sterile water to a final concentration of 1 mg/mL. Stock solutions were kept at +4° C., light protected.
(§2) Colonies of the microorganisms were diluted in saline (0.85%, NaCl) and adjusted using a McFarland reader (bioMérieux SA, Marcy-l'Etoile, France) to 0.5 McFarland standard. Subsequently, the bacterial suspension was diluted in Mueller-Hinton II (MHII, cation adjusted) broth to give approximately 5×10^5 colony forming units (CFU/mL).
(§3) 10^6 colony forming units (CFU)/mL. Aliquots (90 μl) of inoculate were added to 10 μl of water+P-80 (Polysorbate 80, 0.002% final concentration) containing the peptide in serial two-fold dilutions at 10 fold final concentration. The following microorganisms were used to determine antibiotic selectivity of the peptides: Escherichia coli ATCC 25922, Escherichia coli MCR-1 Af 45 and Klebsiella pneumoniae SSI3010.

[2] = tested on: Escherichia coli MCR-1 Af 45; settings: Mueller-Hinton broth II, no visible growth after 18-20 hours at 35° C.
Method: as §1, §2, §3

[3] = tested on: Klebsiella pneumoniae SSI3010; settings: SSI3010
Method: as §1, §2, §3

[4] = tested on: human red blood cells (hRBC); format: cell-based; settings: red cells of human, 1 h, 0.2 g/L
Method: as §1
The peptides were tested for their hemolytic activity against human red blood cells (hRBC). Fresh hRBC were washed three times with phosphate buffered saline (PBS) and centrifuged for 5 min at 3000×g. Compounds (200 μg/mL) were incubated with 20% hRBC (v/v) for 1 h at 37° C. and shaking at 300 rpm. A value of 0% and 100% cell lyses, respectively, was determined by incubation of hRBC in the presence of PBS and 2.5% Triton X-100 in H2O, respectively. The samples were centrifuged, the supernatants were 8-fold diluted in PBS buffer and the optical densities (OD) were measured at 540 nm. The 100% lyses value (OD540H2O) gave an OD540 of approximately 0.5-1.0.
Percent hemolysis was calculated as follows: (OD540peptide/OD540H2O)×100%.

Row | Structure (SMILES) | Escherichia coli ATCC 25922 MIC [1] | Escherichia coli MCR-1 Af 45 MIC [2] | Klebsiella pneumoniae SSI3010 MIC [3] | Hemolysis at 0.2 g/L [4]
1 | CC[C@H](C)[C@H](NC(=O)[C@@H](NC(=O)[C@@H]1C[C@@H](O)CN1C(=O)[C@@H](N)C(C)C)[C@@H](C)CC)C(=O)N[C@@H](Cc1ccc(O)cc1)C(=O)N[C@@H]1C(=O)N[C@@H](CC(N)=O)C(=O)N[C@@H](CCCNC(=N)N)C(=O)N[C@@H](CCN)C(=O)N[C@@H]([C@@H](C)O)C(=O)N[C@H](CCN)C(=O)N[C@@H](CCCCN)C(=O)N[C@H](C(=O)N[C@@H](CO)C(=O)N[C@@H](CCCNC(=N)N)C(=O)N[C@@H](Cc2ccc(O)cc2)C(=O)O)CSSC1(C)C [Example 107, Val-Hyp-Ile-Ile-Tyr-Pen-Asn-Arg-Dab-Thr-^DDab-Lys-Cys-Ser-Arg-Tyr] (HELM PEPTIDE1{V.[Hyp].I.I.Y.[Pen].N.R.[Dab].T.[NCC[C@@H](N[*:1])C(=O)[*:2]].K.C.S.R.Y}$PEPTIDE1,PEPTIDE1,6:R3-13:R3$$$V2.0) | 0.25 µg/mL | 0.25 µg/mL | 0.5 µg/mL | <1%
2 | CC[C@H](C)[C@H](NC(=O)[C@@H](NC(=O)[C@@H]1C[C@@H](O)CN1C(=O)[C@@H](N)C(C)(C)C)[C@@H](C)CC)C(=O)N[C@@H](Cc1ccc(O)cc1)C(=O)N[C@@H]1C(=O)N[C@@H](CC(N)=O)C(=O)N[C@@H](CCCNC(=N)N)C(=O)N[C@@H](CCN)C(=O)N[C@@H]([C@@H](C)O)C(=O)N[C@H](CCN)C(=O)N[C@@H](CCCCN)C(=O)N[C@H](C(=O)N[C@@H](CCN)C(=O)N[C@@H](CCCNC(=N)N)C(=O)N[C@@H](Cc2ccc(O)cc2)C(=O)O)CSSC1(C)C [Example 114, tBuGly-Hyp-Ile-Ile-Tyr-Pen-Asn-Arg-Dab-Thr-^DDab-Lys-Cys-Dab-Arg-Tyr] (HELM PEPTIDE1{[CC(C)(C)[C@H](N)C(=O)[*:2]].[Hyp].I.I.Y.[Pen].N.R.[Dab].T.[NCC[C@@H](N[*:1])C(=O)[*:2]].K.C.[Dab].R.Y}$PEPTIDE1,PEPTIDE1,6:R3-13:R3$$$V2.0) | 0.125 µg/mL | 0.125 µg/mL | 0.5 µg/mL | <1%
3 | CC[C@H](C)[C@H](NC(=O)[C@@H]1C[C@@H](O)CN1C(=O)[C@@H](N)C(C)C)C(=O)N[C@@H](CCN)C(=O)N[C@@H](Cc1ccc(O)cc1)C(=O)N[C@@H]1C(=O)N[C@@H](CC(N)=O)C(=O)N[C@@H](CCCNC(=N)N)C(=O)N[C@@H](CCN)C(=O)N[C@@H](CO)C(=O)N[C@H](CCN)C(=O)N[C@@H](CCCCN)C(=O)N[C@H](C(=O)N[C@@H](CCN)C(=O)N[C@@H](CCN)C(=O)N[C@@H](Cc2ccc(O)cc2)C(=O)O)CSSC1(C)C [Example 81, Val-Hyp-Ile-Dab-Tyr-Pen-Asn-Arg-Dab-Ser-^DDab-Lys-Cys-Dab-Dab-Tyr] (HELM PEPTIDE1{V.[Hyp].I.[Dab].Y.[Pen].N.R.[Dab].S.[NCC[C@@H](N[*:1])C(=O)[*:2]].K.C.[Dab].[Dab].Y}$PEPTIDE1,PEPTIDE1,6:R3-13:R3$$$V2.0) | 0.125 µg/mL | 0.0625 µg/mL | 0.5 µg/mL | <1%
4 | CC[C@H](C)[C@H](NC(=O)[C@@H](NC(=O)[C@@H]1C[C@@H](O)CN1C(=O)[C@@H](N)C(C)C)[C@@H](C)CC)C(=O)N[C@@H](Cc1ccc(O)cc1)C(=O)N[C@@H]1C(=O)N[C@@H](CC(N)=O)C(=O)N[C@@H](CCCNC(=N)N)C(=O)N[C@@H](CCCN)C(=O)N[C@@H]([C@@H](C)O)C(=O)N[C@H](CCN)C(=O)N[C@@H]([C@@H](C)CC)C(=O)N[C@H](C(=O)N[C@@H](CCN)C(=O)N[C@@H](CCCNC(=N)N)C(=O)N[C@@H](Cc2ccc(O)cc2)C(=O)O)CSSC1(C)C [Example 121, Val-Hyp-Ile-Ile-Tyr-Pen-Asn-Arg-Orn-Thr-^DDab-Ile-Cys-Dab-Arg-Tyr] (HELM PEPTIDE1{V.[Hyp].I.I.Y.[Pen].N.R.[Orn].T.[NCC[C@@H](N[*:1])C(=O)[*:2]].I.C.[Dab].R.Y}$PEPTIDE1,PEPTIDE1,6:R3-13:R3$$$V2.0) | 0.25 µg/mL | 0.25 µg/mL | 0.5 µg/mL | <1%
5 | CC[C@H](C)[C@H](NC(=O)[C@@H](NC(=O)[C@@H]1C[C@@H](O)CN1C(=O)[C@@H](N)C(C)C)[C@@H](C)CC)C(=O)N[C@@H](Cc1ccc(O)cc1)C(=O)N[C@@H]1C(=O)N[C@@H](CC(N)=O)C(=O)N[C@@H](CCCNC(=N)N)C(=O)N[C@@H](CCN)C(=O)N[C@@H]([C@@H](C)O)C(=O)N[C@H](CCN)C(=O)N[C@@H](CCCN)C(=O)N[C@H](C(=O)N[C@@H](CCN)C(=O)N[C@@H](CCCNC(=N)N)C(=O)N[C@@H](Cc2ccc(O)cc2)C(=O)O)CSSC1(C)C [Example 78, Val-Hyp-Ile-Ile-Tyr-Pen-Asn-Arg-Dab-Thr-^DDab-Orn-Cys-Dab-Arg-Tyr] (HELM PEPTIDE1{V.[Hyp].I.I.Y.[Pen].N.R.[Dab].T.[NCC[C@@H](N[*:1])C(=O)[*:2]].[Orn].C.[Dab].R.Y}$PEPTIDE1,PEPTIDE1,6:R3-13:R3$$$V2.0) | 0.0625 µg/mL | 0.0625 µg/mL | 0.125 µg/mL | <1%
6 | CC[C@H](C)[C@H](NC(=O)[C@@H](NC(=O)[C@@H]1C[C@@H](N)CN1C(=O)[C@@H](N)C(C)C)[C@@H](C)CC)C(=O)N[C@@H](Cc1ccc(O)cc1)C(=O)N[C@@H]1C(=O)N[C@@H](CC(N)=O)C(=O)N[C@@H](CCCNC(=N)N)C(=O)N[C@@H](CCN)C(=O)N[C@@H]([C@@H](C)O)C(=O)N[C@H](CCN)C(=O)N[C@@H](CCCCN)C(=O)N[C@H](C(=O)N[C@@H](CCN)C(=O)N[C@@H](CO)C(=O)N[C@@H](Cc2ccc(O)cc2)C(=O)O)CSSC1(C)C [Example 100, Val-Pro((4R)NH2)-Ile-Ile-Tyr-Pen-Asn-Arg-Dab-Thr-^DDab-Lys-Cys-Dab-Ser-Tyr] (HELM PEPTIDE1{V.[N[C@@H]1C[C@@H](C(=O)[*:2])N([*:1])C1].I.I.Y.[Pen].N.R.[Dab].T.[NCC[C@@H](N[*:1])C(=O)[*:2]].K.C.[Dab].S.Y}$PEPTIDE1,PEPTIDE1,6:R3-13:R3$$$V2.0) | 0.25 µg/mL | 0.0625 µg/mL | 0.25 µg/mL | <1%
7 | CC[C@H](C)[C@H](NC(=O)[C@@H]1C[C@@H](OC)CN1C(=O)[C@@H](N)C(C)C)C(=O)N[C@H](C(=O)N[C@@H](Cc1ccc(O)cc1)C(=O)N[C@@H]1C(=O)N[C@@H](CC(N)=O)C(=O)N[C@@H](CCCNC(=N)N)C(=O)N[C@@H](CCN)C(=O)N[C@@H]([C@@H](C)O)C(=O)N[C@H](CCN)C(=O)N[C@@H](CCCCN)C(=O)N[C@H](C(=O)N[C@@H](CCN)C(=O)N[C@@H](CCCNC(=N)N)C(=O)N[C@@H](Cc2ccc(O)cc2)C(=O)O)CSSC1(C)C)[C@@H](C)O [Example 130, Val-Pro((4R)OPh)-Ile-Thr-Tyr-Pen-Asn-Arg-Dab-Thr-^DDab-Lys-Cys-Dab-Arg-Tyr] (H-V[Hyp](Me)ITY[Pen]NR[Dab]T[dDab]KC[Dab]RY-OH; disulfide 6-13) | 0.125 µg/mL | 0.125 µg/mL | 0.25 µg/mL | <1%
